Measurements: ChEMBL document CHEMBL5236587, “Discovery of oxazoline enhancers of cellular progranulin release” (Bioorg Med Chem Lett, 2023)

Experiments:
[1] = target: Voltage-gated inwardly rectifying potassium channel KCNH2 (Homo sapiens, UniProt Q12809); assay: Inhibition of human ERG; type: toxicity
[2] = Induction of progranulin secretion in mouse BV-2 cells; type: functional, cell-based
[3] = target: Muscarinic acetylcholine receptor M3 (Homo sapiens, UniProt P20309); assay: Antagonist activity at M3 receptor (unknown origin)
Muscarinic acetylcholine receptor M3, sequence (P20309 whole entry): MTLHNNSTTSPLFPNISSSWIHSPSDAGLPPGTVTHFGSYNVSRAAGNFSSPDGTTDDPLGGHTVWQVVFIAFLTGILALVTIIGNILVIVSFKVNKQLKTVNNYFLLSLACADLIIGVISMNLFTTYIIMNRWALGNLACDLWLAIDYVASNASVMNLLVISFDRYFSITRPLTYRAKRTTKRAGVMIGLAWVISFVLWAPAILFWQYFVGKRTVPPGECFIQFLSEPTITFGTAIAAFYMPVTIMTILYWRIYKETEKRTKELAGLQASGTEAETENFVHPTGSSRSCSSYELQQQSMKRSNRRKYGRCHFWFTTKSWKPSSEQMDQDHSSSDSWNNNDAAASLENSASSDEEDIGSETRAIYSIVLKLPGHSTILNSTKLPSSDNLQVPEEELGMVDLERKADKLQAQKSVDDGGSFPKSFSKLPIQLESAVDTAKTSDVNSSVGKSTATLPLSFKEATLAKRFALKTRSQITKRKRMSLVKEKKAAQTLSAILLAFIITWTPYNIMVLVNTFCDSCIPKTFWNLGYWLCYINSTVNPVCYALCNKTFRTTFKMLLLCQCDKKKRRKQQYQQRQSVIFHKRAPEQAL

Voltage-gated inwardly rectifying potassium channel KCNH2, sequence (Q12809 whole entry): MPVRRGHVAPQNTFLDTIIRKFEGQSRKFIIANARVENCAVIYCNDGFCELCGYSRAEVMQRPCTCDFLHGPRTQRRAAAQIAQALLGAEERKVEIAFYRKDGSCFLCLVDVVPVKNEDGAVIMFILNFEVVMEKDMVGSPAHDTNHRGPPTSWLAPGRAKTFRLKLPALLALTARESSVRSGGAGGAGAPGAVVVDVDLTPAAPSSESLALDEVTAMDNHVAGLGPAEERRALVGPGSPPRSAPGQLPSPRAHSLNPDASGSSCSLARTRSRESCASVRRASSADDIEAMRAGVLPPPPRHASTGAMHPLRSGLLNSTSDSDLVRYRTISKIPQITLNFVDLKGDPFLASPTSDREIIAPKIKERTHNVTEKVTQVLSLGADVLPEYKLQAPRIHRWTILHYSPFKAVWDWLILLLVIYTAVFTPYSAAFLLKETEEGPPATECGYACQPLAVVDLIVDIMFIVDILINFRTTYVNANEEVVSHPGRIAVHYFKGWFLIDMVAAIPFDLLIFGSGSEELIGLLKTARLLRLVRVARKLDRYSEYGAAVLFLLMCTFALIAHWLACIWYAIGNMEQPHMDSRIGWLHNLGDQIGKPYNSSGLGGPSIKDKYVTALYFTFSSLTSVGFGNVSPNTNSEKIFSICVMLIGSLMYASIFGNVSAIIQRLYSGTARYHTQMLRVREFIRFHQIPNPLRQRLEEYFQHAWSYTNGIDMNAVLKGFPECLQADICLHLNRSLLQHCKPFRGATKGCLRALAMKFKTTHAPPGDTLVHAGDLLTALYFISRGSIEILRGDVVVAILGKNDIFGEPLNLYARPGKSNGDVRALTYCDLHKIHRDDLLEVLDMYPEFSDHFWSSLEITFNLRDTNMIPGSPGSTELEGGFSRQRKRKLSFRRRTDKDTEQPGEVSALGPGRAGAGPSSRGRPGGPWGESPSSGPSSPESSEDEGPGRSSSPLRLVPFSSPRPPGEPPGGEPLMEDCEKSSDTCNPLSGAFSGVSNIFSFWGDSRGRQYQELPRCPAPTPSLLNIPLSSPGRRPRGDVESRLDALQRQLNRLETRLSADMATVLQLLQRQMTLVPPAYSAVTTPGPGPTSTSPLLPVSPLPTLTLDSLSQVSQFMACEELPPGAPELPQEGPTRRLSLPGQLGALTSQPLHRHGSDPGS

O=C(O[C@H]1CN2CCC1CC2)N1CCc2ccccc2[C@@H]1c1ccc(F)cc1
IC50 [1]: 0.34 µM
EC50 [2]: 0.257 µM
EC50 [3]: 17 µM

O=C(O[C@H]1CN2CCC1CC2)N1CCc2ccccc2[C@@H]1c1ccccc1 [SOLIFENACIN]
EC50 [2]: 1.3 µM
EC50 [3]: 0.024 µM
